Source: patent publication US11254640B2, “N-substituted indoles and other heterocycles for treating brain disorders” (The Regents of the University of California, priority 2019, dated 2022)

Columns and labels:
cortical neurons [1] = assay: Dendritogenesis assay, Sholl analysis; format: cell-based, rat; conditions: 10 μM; for Emax at 10 µM: Rattus norvegicus, Cortical neurone, Nmax with vehicle (DMSO) = 0% and ketamine = 100%, read-out: % efficacy in sholls; for dendritic arbor complexity / neuronal growth (Nmax of Sholl plots): cortical neurons
In short: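 Rat cortical neurons (timed-pregnant Sprague Dawley) were treated at DIV3 with compound at 10 μM unless noted (0.1% DMSO) for 1 h, washed out, grown 71 h more. Fixed, MAP2-immunostained, imaged; Sholl Nmax, with % efficacy scaled to DMSO (0%) and ketamine (100%).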

5HT2A sensor [2] = assay: 5HT2A sensor assay, agonist mode (sLight1.3s HEK293T stable line); format: cell-based; conditions: for activation of 5HT2A sensor assay in agonist mode at 10 μM: 10 μM of compound (FIG. 11); for activation of 5HT2A sensor assay in agonist mode (dose response): dose response (FIG. 10)
In short: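 Fluorescence change, dFF=(Fsat−Fapo)/Fapo, was taken from membrane images (460 nm excitation) before and after compound addition and scaled as % activation, with the DMSO mean as 0 and the 5HT mean as 100. The cells were sLight1.3s HEK293T in HBSS. Final compound levels were 100 μM, 10 μM and 100 nM in 0.1% DMSO, in triplicate.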

cortical neurons [3] = assay: Ketanserin blocking experiments (dendritogenesis); format: cell-based, rat; conditions: ketanserin 10 μM, drug 1 μM (FIG. 7)
Procedure: Ketanserin Blocking Experiments. For the ketaserin blocking experiments (FIG. 7), a slightly modified method was employed. On DIV 3, neurons were first treated with ketanserin (10 μM) for 1 h followed by a 1 h incubation with drug (1 μM) and ketanserin (10 μM) (final concentration of DMSO=0.2%). After 1 h, the media was removed and replaced with new Neurobasal media containing 1× B27 supplement, 1% penicillin-streptomycin, 0.5 mM glutamine, and 12.5 μM glutamate. The cells were allowed to grow for an additional 71 h before being fixed, stained, and imaged.

rats = rats trained to discriminate DOM from saline; cited from earlier work
C57BL/6J mice = assay: Head twitch response (HTR) assay; format: in vivo, mouse; conditions: intraperitoneal injection, head-twitches over 20 mins (FIG. 8, FIG. 9)
Text: Animals. For the dendritogenesis experiments, timed pregnant Sprague Dawley rats were obtained from Charles River Laboratories (Wilmington, Mass.). For the head-twitch response assay, male and female C57BL/6J mice were obtained from Jackson Laboratory (Sacramento, Calif.). Mice were housed in a temperature and humidity-controlled room maintained on a 12-h light/dark cycle in groups of 4-5 (same sex). Animals weighed between 17 and 30 g at the time of the experiments. All experimental procedures involving rodents were approved by the UC Davis Institutional Animal Care and Use Committee (IACUC) and adhered to principles described in the National Institutes of Health Guide for the Care and Use of Laboratory Animals. The University of California, Davis and the University of California, San Francisco are accredited by the Association for Assessment and Accreditation of Laboratory Animal Care International (AAALAC).
Head twitch response experiments. Mice (9-10 weeks old) were injected intraperitoneally with compound (injection volume 5 ml/kg), placed in an empty cage, and filmed for 20 minutes. Cages were cleaned with 70% ethanol between experiments.

5HT2A sensor [4] = assay: 5HT2A sensor assay, antagonist mode (sLight1.3s HEK293T stable line); format: cell-based; conditions: dose response (FIG. 12A, FIG. 12B)
In short: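 Inactivation score is computed from membrane dFF as (dFF(compound+5HT)−dFF(5HT))/dFF(5HT), with HBSS-only fluorescence as Fapo. Final concentrations: 5-HT 100 nM added first, then compound at 100 nM, 10 μM or 100 μM in 0.1% DMSO. Triplicates; FITC imaging, 5 fields per well.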

C57/BL6J mice = assay: Forced swim test (FST); format: in vivo, mouse; conditions: 24 h after drug administration; i.p., compounds 20 mg/kg, ketamine 3 mg/kg
Procedure: Forced Swim Test. As increased cortical structural plasticity in the anterior parts of the brain mediates the sustained (>24 h) antidepressant-like effects of ketamine and play a role in the therapeutic effects of 5-HT2A agonists, the impact of IsoDMT analogs on forced swim test (FST) behavior (FIG. 14A and FIG. 14B) was evaluated. First, a pretest was used to induce a depressive phenotype. Compounds were administered 24 h after the pre-test, and the FST was performed 24 h and 7 d post drug administration.
Forced Swim Test (FST). Male C57/BL6J mice (9-10 weeks old at time of experiment) were obtained from the Jackson Lab and housed 4-5 mice/cage in a UCD vivarium following an IACUC approved protocol. After 1 week in the vivarium each mouse was handled for approximately 1 minute by a experimenter for 3 consecutive days leading up to the first FST. […] Immobility scores for all mice were determined after the pre-test and mice were randomly assigned to treatment groups to generate groups with similar average immobility scores to be used for the following two FST sessions. […] Experiments were video-recorded and manually scored offline. Immobility time—defined as passive floating or remaining motionless with no activity other than that needed to keep the mouse's head above water—was scored for the last 4 min of the 6 min trial.

Cc1cc2ccccc2n1CCN(C)C.O=C(O)/C=C/C(=O)O [Example 16, N,N-dimethyl-2-(2-methyl-1H-indol-1-yl)ethan-1-amine]
melting point: 131 to 133 °C
Emax at 10 µM (cortical neurons [1]): 104%
dendritic arbor complexity / neuronal growth (Nmax of Sholl plots) (cortical neurons [1]): well tolerated

CN(C)CCn1ccc2ccc([N+](=O)[O-])cc21.O=C(O)/C=C/C(=O)O [Example 19, N,N-dimethyl-2-(6-nitro-1H-indol-1-yl)ethan-1-amine]
melting point: 159 to 164 °C
Emax at 10 µM (cortical neurons [1]): 85%

CN(C)CCn1ccc2cc(Br)ccc21.O=C(O)/C=C/C(=O)O [Example 20, 2-(5-bromo-1H-indol-1-yl)-N,N-dimethylethan-1-amine]
melting point: 140 to 142 °C
Emax at 10 µM (cortical neurons [1]): 117%

CN(C)CCn1cnc2ccccc21.O=C(O)/C=C/C(=O)O [Example 22, 2-(1H-benzo[d]imidazol-1-yl)-N,N-dimethylethan-1-amine]
melting point: 171 to 178 °C
Emax at 10 µM (cortical neurons [1]): 50%
dendritic arbor complexity / neuronal growth (Nmax of Sholl plots) (cortical neurons [1]): minimal effect on the ability of these molecules to promote neuronal growth

CN(C)CCn1c2ccccc2c2ccccc21.O=C(O)/C=C/C(=O)O [Example 24, 2-(9H-carbazol-9-yl)-N,N-dimethylethan-1-amine]
melting point: 182 to 184 °C
Emax at 10 µM (cortical neurons [1]): 86%
dendritic arbor complexity / neuronal growth (Nmax of Sholl plots) (cortical neurons [1]): minimal effect on the ability of these molecules to promote neuronal growth

CN(C)CCCn1ccc2ccccc21.O=C(O)/C=C/C(=O)O [Example 26, 3-(1H-indol-1-yl)-N,N-dimethylpropan-1-amine]
melting point: 129 to 131 °C
Emax at 10 µM (cortical neurons [1]): 70%
dendritic arbor complexity / neuronal growth (Nmax of Sholl plots) (cortical neurons [1]): only a slight decrease in the Nmax value

COc1ccc2[nH]cc(CCN(C)C)c2c1 [Example 28, 2-(5-methoxy-1H-indol-3-yl)-N,N-dimethylethan-1-amine, reference compound]
activation of 5HT2A sensor assay in agonist mode at 10 μM (5HT2A sensor [2]): activate the 5HT2A sensor assay in agonist mode
activation of 5HT2A sensor assay in agonist mode (dose response) (5HT2A sensor [2]): activate
effect of 5-HT2A antagonist pretreatment on increase in dendritic growth (cortical neurons [3]): blocked
substitution for hallucinogenic training drug (DOM) in drug discrimination (rats): substitutes
head-twitch response (hallucinogenic potential) (C57BL/6J mice): robust, dose-dependent HTR
Emax at 10 µM (cortical neurons [1]): 80%

COc1ccc2c(CCN(C)C)c[nH]c2c1 [Example 30, 2-(6-methoxy-1H-indol-3-yl)-N,N-dimethylethan-1-amine, reference compound]
activation of 5HT2A sensor assay in agonist mode at 10 μM (5HT2A sensor [2]): do not activate the 5HT2A sensor assay in agonist mode
activation of 5HT2A sensor assay in agonist mode (dose response) (5HT2A sensor [2]): do not
substitution for hallucinogenic training drug (DOM) in drug discrimination (rats): does not
head-twitch response (hallucinogenic potential) (C57BL/6J mice): did not produce a HTR
Emax at 10 µM (cortical neurons [1]): 72%
competition with 5-HT in 5HT2A sensor assay, antagonist mode (dose response) (5HT2A sensor [4]): compete off 5-HT

CN(C)C(=O)Cn1ccc2ccccc21 [Example 31, 2-(1H-indol-1-yl)-N,N-dimethylacetamide]
melting point: 58 to 61 °C
dendritic arbor complexity / neuronal growth (Nmax of Sholl plots) (cortical neurons [1]): did not promote neuronal growth

CNC1(c2ccccc2Cl)CCCCC1=O (stereo not shown) [ketamine, reference compound]
immobility in forced swim test (C57/BL6J mice): significantly reduced immobility
